{
  "source": "patent US10646472B2",
  "about": "“Composition comprising a photosensitive compound in a polymeric nanoparticle, and a method of using the composition” (Oregon State University, priority 2015, dated 2020)",
  "system": "Chinese Hamster Ovary (CHO-K1) cells",
  "experiment": "In vitro micronucleus assay (genotoxicity)",
  "assay_type": "cell-based",
  "conditions": "SiNc-NP 90 μg/mL, 24 hours; MMS 50 μg/mL positive control",
  "method": "Genotoxicity describes the property of chemical agents that damages the genetic information within a cell causing mutations, which may lead to cancer. An in vitro micronucleus assay was used to determine the genotoxicity of SiNc-NP on Chinese Hamster Ovary (CHO-K1) cells. Cells were treated with SiNc-NP (90 μg/mL) for the experiment group, fresh media for negative control, or methyl methanesulfonate (MMS, 50 μg/mL) for a positive control.\nA quantitative analysis was then performed to evaluate the genotoxicity. The analysis counted the number of micronuclei per 1000 cells.",
  "data": [
    {"smiles": "COS(C)(=O)=O", "note": "[MMS, methyl methanesulfonate]", "values": [
      {"measurement": "appearance of cell nuclei (fluorescence imaging, DAPI)", "result": "noticeable numbers of small buds/fragments appeared on or near cell nuclei"}
    ]}
  ]
}
